Results on 36 molecules are retold here after US11541050B2, “Pyrimidine derivatives for the treatment of viral infections” (JANSSEN SCIENCES IRELAND UC, priority 2011, dated 2023).

The target of test [1] is T1, human TLR7 (wild type sequence) (Homo sapiens, UniProt Q9NYK1).
T1 construct: expressed in transfected cells; host or cells: HEK293
T1 sequence (Q9NYK1 27-1049): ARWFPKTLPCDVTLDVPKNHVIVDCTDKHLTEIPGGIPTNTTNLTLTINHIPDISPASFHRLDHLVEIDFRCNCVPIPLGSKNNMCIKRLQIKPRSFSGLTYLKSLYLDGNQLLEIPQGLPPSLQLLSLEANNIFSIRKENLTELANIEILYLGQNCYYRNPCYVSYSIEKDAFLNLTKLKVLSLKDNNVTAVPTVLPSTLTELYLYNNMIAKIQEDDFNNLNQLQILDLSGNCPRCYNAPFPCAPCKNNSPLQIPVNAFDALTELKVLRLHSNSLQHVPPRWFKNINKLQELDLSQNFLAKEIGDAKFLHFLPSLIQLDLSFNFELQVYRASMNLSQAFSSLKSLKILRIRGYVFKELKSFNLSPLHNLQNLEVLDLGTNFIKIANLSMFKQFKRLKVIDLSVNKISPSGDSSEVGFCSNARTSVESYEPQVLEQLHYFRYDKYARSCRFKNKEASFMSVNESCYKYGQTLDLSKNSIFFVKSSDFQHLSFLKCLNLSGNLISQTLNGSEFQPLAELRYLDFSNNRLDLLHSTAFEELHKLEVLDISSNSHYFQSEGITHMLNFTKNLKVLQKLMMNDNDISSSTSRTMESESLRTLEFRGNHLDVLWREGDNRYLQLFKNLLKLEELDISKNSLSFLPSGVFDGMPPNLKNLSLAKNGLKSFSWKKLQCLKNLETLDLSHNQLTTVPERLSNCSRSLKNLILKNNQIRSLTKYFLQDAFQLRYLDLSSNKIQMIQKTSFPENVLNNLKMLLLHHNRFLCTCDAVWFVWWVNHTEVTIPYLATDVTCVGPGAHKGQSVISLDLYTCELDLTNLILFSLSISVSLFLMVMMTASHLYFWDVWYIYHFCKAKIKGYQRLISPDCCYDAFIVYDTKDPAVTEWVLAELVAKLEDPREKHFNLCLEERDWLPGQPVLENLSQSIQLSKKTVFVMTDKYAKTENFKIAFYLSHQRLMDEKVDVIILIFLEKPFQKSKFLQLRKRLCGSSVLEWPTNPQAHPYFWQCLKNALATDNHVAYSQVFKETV
Nature of the test: TLR7 cellular NFκB-luc reporter assay, wild type TLR7. More on the design: unit not given here. The format is cell-based. Conditions: lowest effective concentration; for TLR 7 wt LEC: wild type TLR7 (compounds 74 onward). How it is done:
(§1) The ability of compounds to activate human TLR7 and/or TLR8 was assessed in a cellular reporter assay using HEK293 cells transiently transfected with a TLR7 or TLR8 expression vector and NFκB-luc reporter construct. In one instance the TLR expression construct expresses the respective wild type sequence or a mutant sequence comprising a deletion in the second leucine-rich repeat of the TLR.
(§2) Briefly, HEK293 cells were grown in culture medium (DMEM supplemented with 10% FCS and 2 mM Glutamine). For transfection of cells in 10 cm dishes, cells were detached with Trypsin-EDTA, transfected with a mix of CMV-TLR7 or TLR8 plasmid (750 ng), NFκB-luc plasmid (375 ng) and a transfection reagent and incubated for 48 hours at 37° C. in a humidified 5% CO2 atmosphere. Transfected cells were then detached with Trypsin-EDTA, washed in PBS and resuspended in medium to a density of 1.67×10^5 cells/mL. Thirty microliters of cells were then dispensed into each well in 384-well plates, where 10 μL of compound in 4% DMSO was already present. Following 6 hours incubation at 37° C., 5% CO2, the luciferase activity was determined by adding 15 μl of Steady Lite Plus substrate (Perkin Elmer) to each well and readout performed on a ViewLux ultraHTS microplate imager (Perkin Elmer). Dose response curves were generated from measurements performed in quadruplicates. Lowest effective concentrations (LEC) values, defined as the concentration that induces an effect which is at least two fold above the standard deviation of the assay, were determined for each compound.

Test [2] addresses T2, human TLR8 (wild type sequence) (Homo sapiens, UniProt Q9NR97).
T2 construct: expressed in transfected cells; host or cells: HEK293
T2 sequence (Q9NR97 27-1041): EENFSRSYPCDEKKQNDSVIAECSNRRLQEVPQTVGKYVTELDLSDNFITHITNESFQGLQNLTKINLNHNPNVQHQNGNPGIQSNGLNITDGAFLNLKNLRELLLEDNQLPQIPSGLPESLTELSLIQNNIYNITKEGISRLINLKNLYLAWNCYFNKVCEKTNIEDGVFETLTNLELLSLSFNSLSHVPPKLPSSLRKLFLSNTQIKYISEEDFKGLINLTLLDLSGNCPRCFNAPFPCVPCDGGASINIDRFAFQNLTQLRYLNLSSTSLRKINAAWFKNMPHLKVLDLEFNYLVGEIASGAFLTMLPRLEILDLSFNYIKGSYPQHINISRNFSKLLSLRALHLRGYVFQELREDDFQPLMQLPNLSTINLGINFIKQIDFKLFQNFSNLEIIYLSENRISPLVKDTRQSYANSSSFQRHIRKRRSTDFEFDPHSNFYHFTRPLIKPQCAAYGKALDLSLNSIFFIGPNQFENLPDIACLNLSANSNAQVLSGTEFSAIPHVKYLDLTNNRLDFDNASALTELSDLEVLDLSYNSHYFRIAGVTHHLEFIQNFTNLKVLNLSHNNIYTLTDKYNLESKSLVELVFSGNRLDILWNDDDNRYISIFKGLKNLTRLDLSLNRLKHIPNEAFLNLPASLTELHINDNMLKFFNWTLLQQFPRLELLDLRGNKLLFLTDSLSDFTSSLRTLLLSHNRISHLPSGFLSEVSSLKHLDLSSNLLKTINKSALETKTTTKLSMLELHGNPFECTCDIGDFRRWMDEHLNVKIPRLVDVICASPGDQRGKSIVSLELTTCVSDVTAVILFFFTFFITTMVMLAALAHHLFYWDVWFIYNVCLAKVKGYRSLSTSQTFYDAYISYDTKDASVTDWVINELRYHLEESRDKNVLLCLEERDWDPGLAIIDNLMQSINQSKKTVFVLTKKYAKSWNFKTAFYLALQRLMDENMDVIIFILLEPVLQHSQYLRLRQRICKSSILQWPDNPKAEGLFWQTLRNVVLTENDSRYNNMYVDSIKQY
Nature of the test: TLR8 cellular NFκB-luc reporter assay, wild type TLR8. The arrangement: unit not given here. Conditions: lowest effective concentration; for TLR 8 wt LEC: wild type TLR8 (compounds 74 onward). The format is cell-based. How it is done:
as §1, §2

The mark [3] stands for this setting: wild type TLR7 (compounds 1-73).
Where [4] appears, read: wild type TLR8 (compounds 1-73).

Each structure is given as a SMILES string.

With `CCCCNc1nc(N)ncc1OCc1ccccc1` [Compound 1], in test [1] (setting [3]), the TLR7-wt_LEC was found to be 0.90. Further, the TLR8-wt_LEC in test [2] (setting [4]) was determined as 2.42.
Taken in the same sequence, the figures for `CCCCNc1nc(N)ncc1OCCC` [Compound 5] were 6.18 and 4.53.
The like results for `CCCCNc1nc(N)ncc1OCCCc1ccccc1` [Compound 19] were, in that order, 1.53 and 7.94.
Take `CCCCNc1nc(N)ncc1OCc1c(C)noc1C` [Compound 36]: in test [2] (setting [4]), the TLR8-wt_LEC is recorded as 1.68.
On the same count and under the same terms, under `CCCCNc1nc(N)ncc1OCc1ccc2ccccc2n1` [Compound 41] stands 0.83; under `CCCCNc1nc(N)ncc1OCc1nccc(OC)c1OC` [Compound 42], 1.15; under `CCCCNc1nc(N)ncc1OCc1cc(C)nn1C` [Compound 48], 1.75.
On the same count and under the same terms, under `CCCC[C@@H](CCO)Nc1nc(N)ncc1OC` [Compound 54] stands 1.40; under `CCC[C@@H](CO)Nc1nc(N)ncc1OC` [Compound 55], 0.16.
Regarding `CCC[C@@H](CCO)Nc1nc(N)ncc1OC` [Compound 57], in test [2] (setting [4]), the TLR8-wt_LEC is listed as 1.80.
Same read-out and setting: the result for `CCCC[C@@H](CO)Nc1nc(N)ncc1OC` [Compound 59] reads 0.36.
Regarding `CCCC(CO)Nc1nc(N)ncc1OC` (stereo not drawn) [Compound 62], the TLR7-wt_LEC in test [1] (setting [3]) is listed as 21.26. This molecule also displayed a TLR8-wt_LEC in test [2] (setting [4]) of 0.55.
Taken in the same sequence, the figures for `CCCC(C)Nc1nc(N)ncc1OC` (stereo not drawn) [Compound 65] were 21.59 and 3.68.
Molecule `COc1cnc(N)nc1NCCCC(F)(F)F` [Compound 66] had a TLR8-wt_LEC in test [2] (setting [4]) of 9.03.
On the same count and under the same terms, the result for `CC[C@H](C)[C@@H](CO)Nc1nc(N)ncc1OC` [Compound 68] reads 0.56.
Same read-out and setting: under `CCC[C@H](CO)Nc1nc(N)ncc1OC` [Compound 72] stands 6.57; under `CCCC[C@H](CO)Nc1nc(N)ncc1OC` [Compound 73], 0.80.
Turning to `CCCCNc1nc(N)ncc1OCc1cccnn1` [Compound 78], the “TLR 7 wt LEC” value in test [1] was 0.519. Besides, the “TLR 8 wt LEC” value in test [2] is recorded as 0.827.
As to `C=CCNc1nc(N)ncc1OC` [Compound 90], the “TLR 7 wt LEC” value in test [1] is recorded as >25. Moreover, the “TLR 8 wt LEC” value in test [2] is on record as 8.460.
Taken in the same sequence, the figures for `COc1cnc(N)nc1NCCC1CC1` [Compound 91] were >25 and 20.850.
Consider `COc1cnc(N)nc1N[C@H](CO)CC(C)C` [Compound 93], for which, in test [1], the “TLR 7 wt LEC” value is reported as >25. The “TLR 8 wt LEC” value in test [2] is 15.880.
For the molecule `CCCCNc1nc(N)ncc1OCc1nccc2ccccc12` [Compound 123], the “TLR 7 wt LEC” value in test [1] amounted to 0.008. The “TLR 8 wt LEC” value in test [2] worked out at 0.143.
The like results for `CCCCNc1nc(N)ncc1OCc1ccc2ccccc2n1` [Compound 157] were, in that order, 0.333 and 1.110.
The like results for `CCCCNc1nc(N)ncc1OCCCc1ccccc1C(F)(F)F` [Compound 162] were, in that order, 11.850 and >25.
Taken in the same sequence, the figures for `CCCCNc1nc(N)ncc1OCc1nc(C)oc1C` [Compound 178] were 0.810 and 0.410.
For `CCCCNc1nc(N)ncc1OCc1nccc(OC)c1OC` [Compound 180], the “TLR 7 wt LEC” value in test [1] is listed as 0.135. The “TLR 8 wt LEC” value in test [2] came to 0.524.
Taken in the same sequence, the figures for `CCCCNc1nc(N)ncc1OCc1nn(C)c2ccccc12` [Compound 182] were 0.014 and 0.178.
The like results for `CCCCNc1nc(N)ncc1OCc1csc(C)n1` [Compound 191] were, in that order, 0.286 and 0.743.
The like results for `CCCCNc1nc(N)ncc1OCc1nc2ccccc2[nH]1` [Compound 193] were, in that order, 0.032 and 0.654.
As to `CCCCNc1nc(N)ncc1OCc1cnccn1` [Compound 199], the TLR7-wt_LEC in test [1] (wild type TLR7) was found to be 0.512. In test [2], this molecule gave a TLR8-wt_LEC of 0.218.
In test [1] (wild type TLR7), `CCCCNc1nc(N)ncc1OCc1nc2ccccc2s1` [Compound 222] had a TLR7-wt_LEC of 0.277.
Same read-out and setting: under `CCCCNc1nc(N)ncc1OCc1cc2ccccn2n1` [Compound 224] stands 0.206; under `CCCC[C@H](CCO)Nc1nc(N)ncc1OC` [Compound 229], >25; under `CCCCNc1nc(N)ncc1OC(C)C` [Compound 233], 10.070.
Same read-out and setting: under `COc1cnc(N)nc1N[C@H](CCO)CC(C)C` [Compound 261] stands 10.790.
On the same count and under the same terms, the result for `CCC(C)[C@H](CCO)Nc1nc(N)ncc1OC` (stereo partly drawn) [Compound 275] reads 10.380.
